Measured values as given in the supplement of paper PMC12317010.

Experiment: collision cross section in nitrogen (drift tube, single-field); higher = larger gas-phase ion size
[1] = ion type: [M+H], ion source: APCI, ion mode: Positive
[2] = ion type: [M+H], ion source: ESI, ion mode: Positive
[3] = ion type: [M+Na], ion source: ESI, ion mode: Positive
[4] = ion type: [M-H], ion source: ESI, ion mode: Negative
[5] = ion source: APCI, ion mode: Positive, ion type: [M]+ (permanent cation)
[6] = ion source: ESI, ion mode: Positive, ion type: [M]+ (permanent cation)
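Note: chemical standards at 10 µM analysed by drift tube IMS-QTOF MS in about 3.95 torr nitrogen, mean of duplicate injections differing ≤1%, mass error below 10 ppm.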

Compound	collision cross section in nitrogen [1]	collision cross section in nitrogen [2]	collision cross section in nitrogen [3]	collision cross section in nitrogen [4]	other results
CCOc1cc([N+](=O)[O-])c(OCC)cc1N1CCOCC1 [4-(2,5-Diethoxy-4-nitrophenyl)morpholine]	173.1 Å²	173.2 Å²			
CN1COCN(Cc2cnc(Cl)s2)C1=N[N+](=O)[O-] [Thiamethoxam]	159.9 Å²		162.1 Å²	158.3 Å²	
CC(C)c1ccc(S(=O)(=O)O)cc1 [Sodium 4-isopropylbenzenesulfonate]				147.5 Å²	
Cn1cc[nH]c1=S [Methimazole]	116.9 Å²	118.1 Å²			
O=C1Nc2ccc(Cl)cc2[C@@](C#CC2CC2)(C(F)(F)F)O1 [Efavirenz]				168.1 Å²	
C=CC(=O)OCC(COC(=O)C=C)(COC(=O)C=C)COC(=O)C=C [Pentaerythritol tetraacrylate]		172.6 Å²	178.8 Å²		
Cc1cc(C2(c3cc(C)c(O)cc3C)OS(=O)(=O)c3ccccc32)c(C)cc1O [p-Xylenol blue]	194.4 Å²	194.5 Å²	200.6 Å²	198 Å²	
O=c1[nH]sc2ccccc12 [1,2-Benzisothiazolin-3-one]				127.2 Å²	
CC(=O)CC(=O)Nc1ccc(C)cc1C [N-(2,4-Dimethylphenyl)-3-oxobutanamide]	147.7 Å²		160.6 Å²	148.8 Å²	
O=C(O)c1ccccc1C(c1ccc(O)cc1)c1ccc(O)cc1 [Phenolphthalin]				184.1 Å²	
CCc1ccc(O)c(C(C)(C)C)c1 [2-tert-Butyl-4-ethylphenol]				144.6 Å²	
CN(C)c1ccc(C(=C2C=CC(=[N+](C)C)C=C2)c2ccccc2)cc1 [Malachite green]					collision cross section in nitrogen [5]: 188.5 Å²; collision cross section in nitrogen [6]: 188.9 Å²
CSc1nc(NC(C)C)nc(NC(C)C)n1 [Prometryn]	160.9 Å²	161 Å²			
CC(C)c1ccc2ncccc2c1 [6-(1-Methylethyl)quinoline]	138 Å²	138.5 Å²			
CCCCOCCOCCOCc1cc2c(cc1CCC)OCO2 [Piperonyl butoxide]			179.9 Å²		
CCCCCCCCCCCCCCCCCC[N+](C)(C)C [N,N,N-Trimethyloctadecan-1-aminium chloride]					collision cross section in nitrogen [5]: 200.2 Å²; collision cross section in nitrogen [6]: 200.7 Å²
O=C(Oc1ccccc1)c1ccccc1C(=O)Oc1ccccc1 [Diphenyl phthalate]			181.1 Å²		
CC1=C(C(=O)Nc2ccccc2)SCCO1 [Carboxin]	151.4 Å²	153 Å²	165.7 Å²	155.8 Å²	
CC1COCc2cc3c(cc21)C(C)(C)C(C)C3(C)C (stereo unspecified)					collision cross section in nitrogen (ion type: [M+], ion source: APCI, ion mode: Positive): 163.2 Å²
N[C@@H](Cc1ccccc1)C(=O)O [L-Phenylalanine]				140.8 Å²	
Cc1cc(C(C)(C)c2cc(C)c(O)c(C)c2)cc(C)c1O [4,4'-Propane-2,2-diylbis(2,6-dimethylphenol)]				182.9 Å²	
COP(=S)(OC)Oc1ccc(Sc2ccc(OP(=S)(OC)OC)cc2)cc1 [Temephos]	189.4 Å²	189.5 Å²	196.3 Å²		
